Test results taken from patent publication EP2308883A1, “New derivatives of thieno[2,3-b]pyridine and 5,6,7,8 tetrahydrothieno[2,3 b]quinoline in particular useful in the treatment of malaria” (priority 2009, dated 2011).
Like-named read-outs stand apart in the source and are kept apart here.

Tests used:
GSK-3 [1] = biological target: T1, GSK-3 (Toxoplasma gondii, UniProt O44002); experiment: Species specificity: recombinant tagged GSK-3 orthologue kinase assay; format: biochemical, Toxaplasma grondii
T1 sequence (O44002 1-394): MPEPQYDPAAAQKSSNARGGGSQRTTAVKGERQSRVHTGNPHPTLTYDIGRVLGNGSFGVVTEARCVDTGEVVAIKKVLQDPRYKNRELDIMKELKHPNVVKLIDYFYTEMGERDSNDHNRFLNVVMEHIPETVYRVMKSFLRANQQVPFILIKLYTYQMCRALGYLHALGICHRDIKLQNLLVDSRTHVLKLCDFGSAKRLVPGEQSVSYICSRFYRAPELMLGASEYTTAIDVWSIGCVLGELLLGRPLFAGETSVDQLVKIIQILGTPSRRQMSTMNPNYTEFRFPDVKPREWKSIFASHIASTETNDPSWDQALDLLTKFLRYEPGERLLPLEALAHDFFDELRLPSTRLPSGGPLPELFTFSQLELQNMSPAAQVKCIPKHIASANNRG

GSK-3 [2] = biological target: T2, GSK-3 (Leishmania major, UniProt Q4QE15); experiment: as above; format: biochemical, Leishmania majo
T2 construct: made in house
T2 sequence (Q4QE15 entry or part of it): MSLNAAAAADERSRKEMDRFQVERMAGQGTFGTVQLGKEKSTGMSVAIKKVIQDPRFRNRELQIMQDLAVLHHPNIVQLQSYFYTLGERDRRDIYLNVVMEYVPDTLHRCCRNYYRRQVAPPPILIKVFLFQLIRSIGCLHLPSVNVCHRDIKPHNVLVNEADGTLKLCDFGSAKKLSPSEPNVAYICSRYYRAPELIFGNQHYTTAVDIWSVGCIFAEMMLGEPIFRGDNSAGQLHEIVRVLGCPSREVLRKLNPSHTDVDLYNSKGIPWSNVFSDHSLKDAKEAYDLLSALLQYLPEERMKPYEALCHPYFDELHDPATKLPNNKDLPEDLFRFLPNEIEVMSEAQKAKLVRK
Source text: Given the strong conservation of GSK-3 across evolution and the surprising selectivity of the compounds according to the present invention towards PfGSK-3 versus mammalian GSK-3, a selection of 12 GSK-3 orthologues of various species chosen on the "tree of life" analyzed. The species belong to the Apicomplexa (P. falciparum, P. vivax, P. knowlesi and P. berghei (Gardner, M.J. et al. Genome sequence of the human malaria parasite Plasmodium falciparum. Nature 419, 498-511 (2002); Carlton, J.M. et al. Comparative genomics of the neglected human malaria parasite Plasmodium vivax. Nature 455, 799-803 (2008); Pain, A. et al. The genome of the simian and human malaria parasite Plasmodium knowlesi. Nature 455, 799-803 (2008).). Toxoplasma gondii (Qin, C.L., Tang, J. and Kim, K. Cloning and in vitro expression of TPK3, a Toxoplasma gondii homologue of shaggy/glycogen synthase kinase-3 kinases. Mol. Biochem. Parasitol. 93, 273-283 (1998)), Cryptosporidium parvum.
Following PCR amplification from cDNA libraries or direct synthesis based on databases sequences, the GSK-3 genes were inserted in appropriate expression vectors and recombinant, tagged kinases were expressed, affinity purified and assayed in the presence of up to 10-100µM of each compound of formula (I) according to the present invention and a selection of the PfGSK-3 inhibitors.

[3] = biological target: Mammalian GSK-3 (GSK-3α/β); experiment: Kinase assay with native porcine GSK3 purified from porcine brain, GS-1 peptide and [γ-33P] ATP; format: biochemical; settings: for anti-mammalian GSK-3 IC50 values: result in words
Procedure: Porcine GSK3 (GSK-3α/β) was purified from porcine brain by affinity chromatography on immobilized axin according to the protocol described in Primot et al (Protein Expression and Purification 20, 394-404, 2000).
(§1) Both porcine GSK3 and PfGSK3 were assayed with 40 µM GS-1 peptide, a specific GSK-3 substrate, ([…]pEDEEE, synthesized by the Peptide Synthesis Unit, Institute of Biomolecular Sciences, University of Southampton, U.K.), in buffer A (25 mM Tris-HCl pH 7.5, 10 mM MgC12, 1 mM EGTA, 1 mM DTT, 50 µg heparin/ml, 0.5 mg BSA/ml) in the presence of 15 µM [γ-^33P] ATP (3000 Ci/mmol; 1 mCi/ml) in a final volume of 30 µl. After 30 min. incubation at 30°C, 25 µl aliquots of supernatant were spotted onto 2.5 x 3 cm pieces of Whatman P81 phosphocellulose paper, and, 20 sec. later, the filters were washed five times (for at least 5 min. each time) in 1 % phosphoric acid. The wet filters were counted in the presence of 1 ml ACS (Amersham) scintillation fluid. The kinase activity was expressed in pmoles phosphate incorporated in GS-1 or in percentage of the maximal activity.

PfGSK-3 = biological target: T3, PfGSK-3 (Plasmodium falciparum, UniProt O77344); experiment: Kinase assay with recombinant (His)6-tagged PfGSK3, GS-1 peptide and [γ-33P] ATP; format: biochemical; settings: for anti-PfGSK-3 IC50 values: result in words
T3 construct: His6; made in house; host or cells: Escherichia coli TOP 10
T3 sequence (O77344 1-440): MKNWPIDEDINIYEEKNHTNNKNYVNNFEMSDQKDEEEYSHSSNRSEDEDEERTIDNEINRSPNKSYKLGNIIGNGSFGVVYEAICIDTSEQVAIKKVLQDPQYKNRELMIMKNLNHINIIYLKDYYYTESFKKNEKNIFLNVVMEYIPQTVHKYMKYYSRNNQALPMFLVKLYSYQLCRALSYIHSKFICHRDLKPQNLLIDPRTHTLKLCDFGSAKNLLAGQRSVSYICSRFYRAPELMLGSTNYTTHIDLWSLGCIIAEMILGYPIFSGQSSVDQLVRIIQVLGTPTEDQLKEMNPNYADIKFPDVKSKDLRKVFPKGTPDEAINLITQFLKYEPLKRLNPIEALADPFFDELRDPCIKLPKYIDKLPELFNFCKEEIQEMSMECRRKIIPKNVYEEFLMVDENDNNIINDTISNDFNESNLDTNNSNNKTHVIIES
Procedure: Escherichia coli strain (TOP 10) containing a plasmid encoding PfGSK3 with six histidines (pBAD-Thio-TOPO, Invitrogen) were cultured into 500 ml of LB medium containing 100 µg/ml ampicillin, at 37°C, under shaking (250 rpm) until OD600 of 0.5 was reached. Expression was induced with 0.5 ml of 20% arabinose (0.02% final concentration). The culture was grown at 37°C with shaking for 4 hours. Cells were harvested by centrifugation at 9000 rpm for 10 min. The bacterial pellet was stored frozen at -80°C until further processing. For proteins extraction, pellet was resuspended in 10 ml of lysis buffer (50 mM NaH2PO4 pH 8.0, 300 mM NaCl, 10 mM imidazole) with the addition of protease inhibitors (complete EDTA-free, Roche) and lysozyme ([…] final). Cells were disrupted by sonication and the cell lysate was centrifuged at 24000 rpm for 30 min at 4°C. The recombinant PfGSK3 protein was purified by Immobilized Metal Affinity Chromatography according to a batch procedure on 1 ml of Nickel affinity resin (Ni-NTA agarose beads, Qiagen). Beads were washed four times with 10 ml of wash buffer (50 mM NaH2PO4 pH 8.0, 300 mM NaCl, 30 mM imidazole). Protein was eluted with one volume of elution buffer (50 mM NaH2PO4 pH 8.0, 300 mM NaCl, 250 mM imidazole, 10% glycerol).
as §1

[4] = -(10) taken as no inhibition at 10, read-out: IC50 Mammalian GSK-3
[5] = unit only in the introducing sentence b99, not in the table, read-out: IC50 PfGSK-3
[6] = calculated from dose-response curves, -(100) taken as no inhibition at 100, read-out: IC50 Toxaplasma grondii

| SMILES | IC50 (GSK-3 [1]) [µM] | IC50 (GSK-3 [2]) [µM] | IC50 [3, 4] [µM] | IC50 ([3]; read-out: mammalian GSK-3α/β IC50) [µM] | anti-mammalian GSK-3 IC50 values [3] | IC50 (PfGSK-3; read-out: PfGSK-3 IC50) [µM] | anti-PfGSK-3 IC50 values (PfGSK-3) | IC50 (PfGSK-3; [5]) [µM] | IC50 (GSK-3 [1]; [6]) [µM] |
| --- | --- | --- | --- | --- | --- | --- | --- | --- | --- |
| N#Cc1c(N)nc2sc(C(=O)c3cccc(Cl)c3)c(N)c2c1-c1ccccc1Cl [Compound 22, 3,6-diamino-2-(3-chlorobenzoyl)-4-(2-chlorophenyl)thieno[2,3-b]pyridine-5-carbonitrile] | > 100 | > 100 | > 10 | > 10 | do not demonstrate good | 0.47 | particularly good | 0.06 | – |
| COc1ccccc1-c1c(C#N)c(N)nc2sc(C(=O)c3ccccc3)c(N)c12 [Compound 2, 3,6-diamino-2-benzoyl-4-(2-methoxyphenyl)thieno[2,3-b]pyridine-5-carbonitrile] | > 100 | > 100 | – | – | do not demonstrate good | – | particularly good | – | – |
| N#Cc1cccc(C(=O)c2sc3nc(N)c(C#N)c(-c4ccccc4Cl)c3c2N)c1 [Compound 26, 3,6-diamino-4-(2-chlorophenyl)-2-(3-cyanobenzoyl)thieno[2,3-b]pyridine-5-carbonitrile] | – | > 100 | > 10 | – | do not demonstrate good | – | particularly good | 0.5 | > 100 |
| N#Cc1c(N)nc2sc(C(=O)c3cccc(Cl)c3)c(N)c2c1-c1ccccc1I [Compound 14, 3,6-diamino-2-(3-chlorobenzoyl)-4-(2-iodophenyl)thieno[2,3-b]pyridine-5-carbonitrile] | – | > 100 | – | – | do not demonstrate good | – | particularly good | – | > 100 |
| N#Cc1c(N)nc2sc(C(=O)c3cccc(Cl)c3)c(N)c2c1-c1ccccc1Br [Compound 20, 3,6-diamino-4-(2-bromophenyl)-2-(3-chlorobenzoyl)thieno[2,3-b]pyridine-5-carbonitrile] | – | > 100 | – | – | do not demonstrate good | – | particularly good | – | > 100 |
